US20200032213A1, “CONDITIONALLY IMMORTALIZED CELLS AND METHODS FOR THEIR PREPARATION” (Academisch Ziekenhuis Leiden h.o.d.n. LUMC, priority 2017, published 2020)

Tests used:
[1] = system: iaCMCs; assay: Dox-dependent proliferation of iaCMCs (Ki-67 immunostaining, cell counting); type: cell-based, rat; settings: in the presence of Dox (100 ng/ml)
Method: Immunostaining of cultured cells was performed as previously described (Yu et al., 2016) using the following primary antibodies at a dilution of 1:200 in PBS containing 0.1% normal donkey serum (NDS; Sigma-Aldrich): mouse anti-LT (Santa Cruz Biotechnology, catalogue number: sc-147), rabbit anti-Ki-67 (Abcam, catalogue number: ab15580), mouse anti-α-actinin (Sigma-Aldrich, catalogue number: A7811), rabbit anti-MLC2a (Kubalak et al., 1994), rabbit anti-Cx43 (Sigma-Aldrich, catalogue number: C6219) and rabbit anti-ERG1/Kv11.1 (Millipore, catalogue number: AB5930). Bound antigens were detected using Alexa 488-conjugated donkey anti-rabbit IgG (H+L) (Thermo Fisher Scientific, catalogue number: A21206) and Alexa 568-coupled donkey anti-mouse IgG (H+L) (Thermo Fisher Scientific, catalogue number: A10037). These secondary antibodies were diluted 1:400 in PBS. Hoechst 33342 ([…]; Thermo Fisher Scientific) was used to counterstain nuclei. Stained cells were visualized using a digital color camera-equipped fluorescence microscope (Nikon Eclipse 80i; Nikon Instruments Europe, Amstelveen, The Netherlands). To assess their proliferation rate, […] were cultured at low density in medium with or without 100 ng/ml Dox. […]

[2] = system: adipogenically differentiated murine clone 6 and 7 tBPAs; assay: Adrenergic stimulation of adipogenically differentiated tBPAs (glycerol production, Ucp1 transcripts); type: cell-based
[3] = system: iaCMCs at day 6 of differentiation; assay: Optical voltage mapping of iaCMC-d6 cultures exposed to astemizole, 1-Hz pacing; type: cell-based, rat
Method: For studying AP propagation in confluent monolayer cultures, cells were seeded at a density of 8×10^5 cells/well in 24-well cell culture plates onto bovine fibronectin-coated round glass coverslips (15 mm diameter) and subjected to optical voltage mapping using di-4-ANEPPS (Thermo Fisher Scientific) as fluorescent voltage indicator as described previously (Bingen et al., 2014). The measurements were carried out at 37° C. on 9-day-old naCMC and nvCMC cultures and on iaCMCs that had been maintained for 0, 3, 6, 9 and 12 days in Dox-free medium. Optical signals were captured using a MiCAM ULTIMA-L imaging system (SciMedia, Costa Mesa, Calif.). Optical traces were analyzed using Brain Vision Analyzer 1208 software (Brainvision, Tokyo, Japan). To minimize noise artifacts, calculations were based on the average of the signals at a selected pixel and its eight nearest neighbors. CV and APD at different percentages of repolarization were determined using cardiomyocyte cultures showing uniform AP propagation and 1:1 capture after 1-Hz local electrical stimulation with an epoxy-coated bipolar platinum electrode delivering square 10-ms, 8-V suprathreshold electrical impulses via a STG 2004 stimulus generator and MC Stimulus II software (both from Multi Channel Systems). Burst pacing with a cycle length of 20 to 100 ms was used to induce reentry. […] To facilitate comparison of the APD, the amplitude of the optical signal traces was normalized for all samples within a given experiment.

[4] = system: iaCMCs at day 9 of differentiation; assay: Optical voltage mapping of tertiapin-treated iaCMC-d9 monolayers, 1-Hz pacing; type: cell-based, rat; settings: tertiapin (100 nM), iaCMCs cultured 9 days without Dox
Method: (§1) For studying AP propagation in confluent monolayer cultures, cells were seeded at a density of 8×10^5 cells/well in 24-well cell culture plates onto bovine fibronectin-coated round glass coverslips (15 mm diameter) and subjected to optical voltage mapping using di-4-ANEPPS (Thermo Fisher Scientific) as fluorescent voltage indicator as described previously (Bingen et al., 2014). The measurements were carried out at 37° C. on 9-day-old naCMC and nvCMC cultures and on iaCMCs that had been maintained for 0, 3, 6, 9 and 12 days in Dox-free medium. Optical signals were captured using a MiCAM ULTIMA-L imaging system (SciMedia, Costa Mesa, Calif.). Optical traces were analyzed using Brain Vision Analyzer 1208 software (Brainvision, Tokyo, Japan). To minimize noise artifacts, calculations were based on the average of the signals at a selected pixel and its eight nearest neighbors. CV and APD at different percentages of repolarization were determined using cardiomyocyte cultures showing uniform AP propagation and 1:1 capture after 1-Hz local electrical stimulation with an epoxy-coated bipolar platinum electrode delivering square 10-ms, 8-V suprathreshold electrical impulses via a STG 2004 stimulus generator and MC Stimulus II software (both from Multi Channel Systems). Burst pacing with a cycle length of 20 to 100 ms was used to induce reentry. […]

[5] = system: confluent monolayers of iaCMCs; assay: In vitro AF model: induction of reentry by burst pacing in confluent iaCMC monolayers; type: cell-based, rat; settings: 100 nM tertiapin, iaCMCs at day 6, 9 or 12 of differentiation
Method: as §1

[6] = system: confluent naCMC cultures; settings: naCMCs; Bingen et al., 2013; cited from earlier work

## C[C@H]1c2cccc(O)c2C(=O)C2=C(O)[C@]3(O)C(=O)C(C(N)=O)=C(O)[C@@H](N(C)C)[C@@H]3[C@@H](O)[C@@H]21 [Dox, doxycycline]
[1]
  average doubling time: 38 h
  iaCMCs positive for the proliferation marker Ki-67: 72.2±8.1%

## NC[C@H](O)c1ccc(O)c(O)c1 [noradrenaline]
[2]
  Ucp1 transcript levels: increased
  glycerol production: increased

## C[C@H](Cc1ccc2c(c1)OC(C(=O)[O-])(C(=O)[O-])O2)NC[C@H](O)c1cccc(Cl)c1.[Na+].[Na+] [CL316243]
[2]
  Ucp1 transcript levels: increased
  glycerol production: increased

## COc1ccc(CCN2CCC(Nc3nc4ccccc4n3Cc3ccc(F)cc3)CC2)cc1 [astemizole]
[3]; 0.1 µM
  conduction velocity (CV): 14.8 ± 2.8 cm/s
[3]; 100 nM astemizole, 30 minutes, iaCMC-d6, 1-Hz pacing, N=6, vehicle 21.5±1.0
  APD at 40% repolarization (APD40): 30.2 ± 2.1 ms
[3]; 100 nM astemizole, 30 minutes, iaCMC-d6, 1-Hz pacing, N=6, vehicle 88.7±5.4
  APD at 90% repolarization (APD90): 110.9 ± 4.2 ms

## tertiapin (ALCNCNRIIIPHMCWKKCGKK)
[4]
  effect on APD: strong increase
[5]
  inducibility of reentry by burst pacing: no longer possible to induce reentry
[6]
  termination of reentrant circuits (rotors) by prolonging APD: could be terminated
